ChEMBL document CHEMBL1134058, “Phospho-Azatyrosine, a less effective protein-tyrosine phosphatase substrate than phosphotyrosine” (Bioorg Med Chem Lett, 2001)
Numbered stars: 1 amine (or outer) side, 2 acyl side, 3 side chain; on linkers, the order of the positions; unused ones are H or OH. Square brackets hold non-standard residues; d marks the D form. Peptide text beside a SMILES is read from it. X1 = O=C([C@H](Cc1ccc(OP(=O)(O)O)cn1)N[*:1])[*:2]; pY = N[C@@H](Cc1ccc(OP(=O)(O)O)cc1)C(=O)O

Biological target: T1, Tyrosine-protein phosphatase non-receptor type 1 (Homo sapiens) (UniProt P18031)
T1 sequence (whole entry): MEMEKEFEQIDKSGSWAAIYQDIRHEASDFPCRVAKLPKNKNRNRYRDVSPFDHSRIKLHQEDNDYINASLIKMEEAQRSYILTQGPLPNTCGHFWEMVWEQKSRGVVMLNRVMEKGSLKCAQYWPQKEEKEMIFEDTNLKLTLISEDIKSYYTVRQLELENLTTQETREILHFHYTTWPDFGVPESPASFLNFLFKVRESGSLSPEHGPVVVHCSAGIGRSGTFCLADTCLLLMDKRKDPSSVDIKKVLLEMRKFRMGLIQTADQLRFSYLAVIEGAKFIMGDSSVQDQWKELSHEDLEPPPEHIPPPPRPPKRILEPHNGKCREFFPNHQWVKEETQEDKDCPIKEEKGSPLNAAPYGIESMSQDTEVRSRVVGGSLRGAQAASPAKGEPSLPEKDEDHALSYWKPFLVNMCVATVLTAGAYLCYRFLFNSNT
Assay: Catalytic turnover rate was determined.

| SMILES | k cat [s⁻¹] |
| --- | --- |
| CC(=O)N[C@@H](CC(=O)O)C(=O)N[C@@H](C)C(=O)N[C@@H](CC(=O)O)C(=O)N[C@@H](CCC(=O)O)C(=O)N[C@@H](Cc1ccc(OP(=O)(O)O)cn1)C(=O)N[C@@H](CC(C)C)C(N)=O (Ac-DADE[X1]L-NH2) | 52 |
| CC(=O)N[C@@H](CC(=O)O)C(=O)N[C@@H](C)C(=O)N[C@@H](CC(=O)O)C(=O)N[C@@H](CCC(=O)O)C(=O)N[C@@H](Cc1ccc(OP(=O)(O)O)cc1)C(=O)N[C@@H](CC(C)C)C(N)=O (Ac-DADE[pY]L-NH2) | 68 |
